Experimental data reported in article PMC12880750, “Mechanistic insights and in vivo HIV suppression by the BRD4-targeting small molecule ZL0580” (PLOS Pathogens, 2026).
Like-named read-outs stand apart in the source and are kept apart here.

Tests used:
[1] = system: Tat recruitment to the HIV promoter in J-Lat cells (clone 10.6); design: method as in PMID 31329163; settings: cited from earlier work
[2] = In vivo pharmacokinetics in ICR mice; design: species or system male ICR mice; settings: mouse, plasma
Experimental: Animal experiments assessing PK and in vivo toxicity profile of ZL0580 was performed by the contracting research organization (CRO) Sundia. The studies were performed according to the NIH Guide for Care and Use of Experimental Animals. The PK studies of ZL0580 was performed using male ICR mice (18–22 g). The mice were randomly divided into two groups (n = 3). The mice of the group 1 were intravenously administrated with ZL0580 [10 mg/kg, in 10% DMSO + 10% Solutol HS 15 + 80% HP-β-CD (20%, w/v)] and the mice of the group 2 were orally administrated with ZL0580 [20 mg/kg, in 10% DMSO + 90% HP-β-CD (20%, w/v)]. Blood samples of group 1 and group 2 mice were collected at the indicated time points post treatment and put into heparinized centrifugation tubes, which were centrifuged under the condition of 6800 rpm and 4 °C for 6 min. The supernatant was collected and stored at -20 °C for further LC-MS analysis. Before the plasma concentrations (AUC) were determined, standard curves were generated with various concentrations of ZL0580 and the internal standard (IS). All PK parameters were calculated with WinNonlin 6.4 software.

BRD4 BD1 E151A = target: T1, BRD4 BD1 E151A (Homo sapiens, UniProt O60885, E151A); experiment: Thermal shift assay (TSA/DSF), BD1 E151A mutant; format: binding; settings: eight increasing concentrations
T1 construct: Constructs used for mutagenesis, including wild-type BD1 (BD1 WT), BD1 with an E151A mutation (BD1 E151A), and wild-type BD2 (BD2 WT); GST (cleaved yes); made in house
Experimental: (§1) The melting temperatures shifts (ΔTm) were measured and the ΔTm curves as a function of compound-to-protein ratios were generated (Fig 2B–2C). […] As an additional control, the Tm of WT BD1 and E151A mutant in the absence of compound was also measured by TSA.
(§2) Plasmid construction and subsequent protein expression and purification of BRD4 proteins were performed using OverExpress C43(DE3) bacterial competent cells (Lucigen) as described in our previous studies. In brief, 12 L of bacterial cultures grown to OD600 between 0.6-0.8 were induced at 37°C for 4 h by 1 mM isopropyl […] (IPTG). Bacterial sonication supernatant in the lysis buffer (500 mM NaCl, 20 mM Tris-HCl pH 7.9 at 4°C, 20% glycerol, 1 mM EDTA, 0.2 mM DTT, and protease inhibitors) was incubated with glutathione (GSH) agarose beads (GOLDBIO, G-250–100) overnight with rotation at 4°C. The protein-bound GSH beads were washed three times with the lysis buffer and digested with human rhinovirus 3C protease (HRV-P3C; Thermal Fisher 88946) at 4°C for 4 h, according to the manufacture’s procedure, to remove GST tag from BD1/2 proteins. Untagged BRD4-BD1 and -BD2 were separated from HRV-P3C via passing through a HiTrap Q HP anion exchange chromatography column (GE Healthcare, GE17-1154-01) and eluted by a salt gradient from 100 mM to 1 M NaCl. […]

J-Lat cells (clone 10.6) = experiment: RNA-Seq differential gene expression; format: cell-based, human; settings: 5 μM, 24 hours, vs. NC; p < 0.001 and log2 fold change > 1
Experimental: 24 hours after treatment, RNA was extracted from cells for sequencing analysis. RNA-Seq was conducted on duplicate samples for each condition.
Following the treatment, total RNA was extracted from the cells using the RNeasy Mini Kit (Qiagen) in accordance with the manufacturer’s instructions. To ensure the integrity and quality of the isolated RNA, samples were first quantified and then analyzed by agarose gel electrophoresis. Clear and intact ribosomal RNA bands confirmed that the RNA was of high quality and suitable for downstream applications. The verified RNA samples were subsequently submitted for high-throughput RNA sequencing (RNA-seq) to evaluate transcriptomic changes induced by the respective treatments. RNA sample quality was assessed using Agilent Bioanalyzer and samples with a RIN value larger than 7.0 were used for library preparation. RNA-Seq libraries were prepared using NEBNext Poly(A) mRNA Magnetic Isolation module (E7490) and NEBNext Ultra II Directional RNA Library Prep kit for illumina (E7760) following manufacturer’s recommended procedure. The library quality was assessed using Agilent Bioanalyzer High Sensitivity DNA chip and real-time PCR and pooled together for sequencing. The pooled library was sequenced on Illumina NextSeq 550 Mid Output 150 cycle kit for Paired End 75 bp reads targeting ~20 million paired reads per sample. The sequencing reads were mapped to human reference genome hg38 using STAR v2.7.5c [59] using recommended ENCODE parameters. Differential gene expression analysis was performed using Bioconductor DESeq 2 package [60].

BRD4 BD1 = system: BRD4 BD1; design: method as in PMID 31329163; settings: in vitro binding affinity; cited from earlier work
BRD4 BD1 WT = target: T2, BRD4 BD1 WT (Homo sapiens, UniProt O60885); experiment: Thermal shift assay (TSA/DSF), BD1 WT; format: binding; settings: eight increasing concentrations
T2 construct: Constructs used for mutagenesis, including wild-type BD1 (BD1 WT), BD1 with an E151A mutation (BD1 E151A), and wild-type BD2 (BD2 WT); GST (cleaved yes); made in house
Experimental: as §1, §2

Structure (SMILES): O=C(Nc1ccc(C(F)(F)F)cc1)Nc1ccc(S(=O)(=O)N2CCC[C@H]2C(=O)Nc2ccccc2)cc1 [ZL0580]
- Tat binding to the HIV promoter [1]: decreased
- AUC(0-t) ([2]; male, IV, 10 mg/kg, ICR mice): 14400 ± 3470 ng·h/mL
- AUC(0-inf) ([2]; male, IV, 10 mg/kg, ICR mice, read-out: AUC0-∞): 14400 ± 3470 ng·h/mL
- Cmax ([2]; IV (10 mg/kg), male ICR mice): 19300 ± 2790 ng/mL
- MRT inf ([2]; IV (10 mg/kg), male ICR mice): 0.73 ± 0.12 h
- clearance ([2]; IV (10 mg/kg), male ICR mice): 12 mL/min/kg
- half-life ([2]; IV (10 mg/kg), male ICR mice): 0.91 ± 0.06 h
- Vd ([2]; IV (10 mg/kg), male ICR mice, read-out: Vz): 0.95 ± 0.28 L/kg
- AUC(0-t) ([2]; PO (20 mg/kg), male ICR mice): 5590 ± 1880 ng·h/mL
- Cmax ([2]; PO (20 mg/kg), male ICR mice): 1470 ± 186 ng/mL
- MRT inf ([2]; PO (20 mg/kg), male ICR mice): 3.18 ± 1.39 h
- half-life ([2]; PO (20 mg/kg), male ICR mice): 2.54 ± 2.24 h
- AUC(0-inf) ([2]; PO (20 mg/kg), male ICR mice, read-out: AUC0-inf): 5800 ± 2120 ng·h/mL
- Effect on stability of BD1 E151A mutant (TSA) (BRD4 BD1 E151A): almost no effect
- Downregulated genes (J-Lat cells (clone 10.6)): 104 genes
- Significantly regulated genes (total) (J-Lat cells (clone 10.6)): 166 genes
- Upregulated genes (J-Lat cells (clone 10.6)): 62 genes
- IC50 (BRD4 BD1): 163 nM
- Effect on stability of WT BD1 (TSA) (BRD4 BD1 WT): dose-dependently increased the stability
